This note sets out measurements from article PMC7054845 (Journal of medicinal chemistry, 2019).

This assay concerns hMMP-12. Description: hMMP-12 inhibition assay in diluted mouse plasma. The assay is classed as biochemical, human. The conditions noted are these: mouse plasma versus buffer.

For `NC(=O)[C@H](CCC(=O)O)NC(=O)[C@H](CCC(=O)O)NC(=O)[C@H](Cc1cc(-c2ccc(-c3cccc(Cl)c3)cc2)no1)CP(=O)(O)c1ccc(Br)cc1` [RXP470.1], the “drop in affinity towards hMMP-12 in mouse plasma (factor)” value is on record as 470.
